One series concerns M579-A2-luc tumour cells. Nature of the series: sensitisation of tumour cells to in-vitro TNF attack, luciferase-based killing assay. The class given is cell-based. As to conditions: TNF 10 ng/mL, compound between about 10 and 100 nM. As to the method:
PANC1-luc is an HLA-A2.1+ luciferase-expressing pancreatic adenocarcinoma (PDAC) tumour cell line, and M579-A2-luc is an HLA-A2.1+ luciferase-expressing melanoma tumour cell line.
After lysis, luciferase assay buffer is added and immediately the luciferase intensity was measured by using the TECAN-Spark microplate reader.

A further series addresses T1, ABL1 wt (Homo sapiens, UniProt P00519).
T1 construct: includes the ABL1 wild-type protein (amino acids P118-S525) and mutants forms; purchased ProQinase
T1 sequence (P00519 118-535 limits assumed): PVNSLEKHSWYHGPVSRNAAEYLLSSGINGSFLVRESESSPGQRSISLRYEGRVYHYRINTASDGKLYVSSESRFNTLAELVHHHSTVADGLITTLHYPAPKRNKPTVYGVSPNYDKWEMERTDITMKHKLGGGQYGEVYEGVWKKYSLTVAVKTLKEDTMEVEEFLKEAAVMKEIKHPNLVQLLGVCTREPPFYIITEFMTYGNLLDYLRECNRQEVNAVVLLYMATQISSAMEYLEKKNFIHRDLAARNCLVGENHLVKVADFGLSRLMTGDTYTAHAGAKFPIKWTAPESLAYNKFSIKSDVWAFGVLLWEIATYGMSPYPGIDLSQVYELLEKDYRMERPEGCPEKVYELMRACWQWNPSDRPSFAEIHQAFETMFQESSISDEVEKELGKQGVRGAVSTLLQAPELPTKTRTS
The experiment in a line: radiometric protein kinase assay (33PanQinase), IC50. The class given is biochemical. As to the method:
(§1) Incorporation of 33Pi was determined with a microplate scintillation counter (Microbeta, Wallac).

Another series has as its target SRC (GST-HIS-tag) (Homo sapiens, UniProt P12931). The description is as above. The class given is biochemical. As to the method:
as §1

Another series deals with T2, SIK3 (Homo sapiens, UniProt Q9Y2K2).
T2 construct: purchased ProQinase
Described as above. It is filed as biochemical. The method, then: as §1

The next series concerns the target T3, SIK2 (Homo sapiens, UniProt Q9H0K1).
T3 construct: purchased ProQinase
The series is described as above. The class given is biochemical. As to the method: as §1

Another series has as its target T4, SIK1 (Homo sapiens, UniProt P57059).
T4 construct: purchased ProQinase
The series is described as above. The class given is biochemical. The method, then: as §1

The next series has as its system K562 CML cells. As to conditions: similar study; dasatinib 10 and 30 mg/kg/day; imatinib 200 mg/kg/day; cited from earlier work.
For the next series, the system named is K562 human CML tumours. To be noted: dasatinib 8-50 mg/kg PO once a day for 10 days, 5-days-on and 2-days off; imatinib high doses; cited from earlier work.
The conditions of series [1]: humans; prescribing information; cited from earlier work.

Chain of SRC (GST-HIS-tag) (P12931 whole entry): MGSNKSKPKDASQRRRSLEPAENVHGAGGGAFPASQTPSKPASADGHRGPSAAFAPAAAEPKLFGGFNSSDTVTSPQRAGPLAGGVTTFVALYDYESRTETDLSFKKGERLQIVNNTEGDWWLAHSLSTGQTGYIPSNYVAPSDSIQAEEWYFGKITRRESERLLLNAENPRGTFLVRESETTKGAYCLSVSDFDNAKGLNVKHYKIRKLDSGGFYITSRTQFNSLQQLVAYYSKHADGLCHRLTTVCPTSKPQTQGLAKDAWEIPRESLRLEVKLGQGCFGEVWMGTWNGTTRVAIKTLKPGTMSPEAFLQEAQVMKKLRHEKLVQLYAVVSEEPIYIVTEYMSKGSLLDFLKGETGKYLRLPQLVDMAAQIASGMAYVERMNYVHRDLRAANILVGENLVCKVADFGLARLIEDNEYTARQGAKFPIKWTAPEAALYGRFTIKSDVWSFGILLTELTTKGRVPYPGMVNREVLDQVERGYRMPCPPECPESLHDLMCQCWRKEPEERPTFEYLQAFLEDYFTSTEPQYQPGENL
T2 sequence (Q9Y2K2 whole entry): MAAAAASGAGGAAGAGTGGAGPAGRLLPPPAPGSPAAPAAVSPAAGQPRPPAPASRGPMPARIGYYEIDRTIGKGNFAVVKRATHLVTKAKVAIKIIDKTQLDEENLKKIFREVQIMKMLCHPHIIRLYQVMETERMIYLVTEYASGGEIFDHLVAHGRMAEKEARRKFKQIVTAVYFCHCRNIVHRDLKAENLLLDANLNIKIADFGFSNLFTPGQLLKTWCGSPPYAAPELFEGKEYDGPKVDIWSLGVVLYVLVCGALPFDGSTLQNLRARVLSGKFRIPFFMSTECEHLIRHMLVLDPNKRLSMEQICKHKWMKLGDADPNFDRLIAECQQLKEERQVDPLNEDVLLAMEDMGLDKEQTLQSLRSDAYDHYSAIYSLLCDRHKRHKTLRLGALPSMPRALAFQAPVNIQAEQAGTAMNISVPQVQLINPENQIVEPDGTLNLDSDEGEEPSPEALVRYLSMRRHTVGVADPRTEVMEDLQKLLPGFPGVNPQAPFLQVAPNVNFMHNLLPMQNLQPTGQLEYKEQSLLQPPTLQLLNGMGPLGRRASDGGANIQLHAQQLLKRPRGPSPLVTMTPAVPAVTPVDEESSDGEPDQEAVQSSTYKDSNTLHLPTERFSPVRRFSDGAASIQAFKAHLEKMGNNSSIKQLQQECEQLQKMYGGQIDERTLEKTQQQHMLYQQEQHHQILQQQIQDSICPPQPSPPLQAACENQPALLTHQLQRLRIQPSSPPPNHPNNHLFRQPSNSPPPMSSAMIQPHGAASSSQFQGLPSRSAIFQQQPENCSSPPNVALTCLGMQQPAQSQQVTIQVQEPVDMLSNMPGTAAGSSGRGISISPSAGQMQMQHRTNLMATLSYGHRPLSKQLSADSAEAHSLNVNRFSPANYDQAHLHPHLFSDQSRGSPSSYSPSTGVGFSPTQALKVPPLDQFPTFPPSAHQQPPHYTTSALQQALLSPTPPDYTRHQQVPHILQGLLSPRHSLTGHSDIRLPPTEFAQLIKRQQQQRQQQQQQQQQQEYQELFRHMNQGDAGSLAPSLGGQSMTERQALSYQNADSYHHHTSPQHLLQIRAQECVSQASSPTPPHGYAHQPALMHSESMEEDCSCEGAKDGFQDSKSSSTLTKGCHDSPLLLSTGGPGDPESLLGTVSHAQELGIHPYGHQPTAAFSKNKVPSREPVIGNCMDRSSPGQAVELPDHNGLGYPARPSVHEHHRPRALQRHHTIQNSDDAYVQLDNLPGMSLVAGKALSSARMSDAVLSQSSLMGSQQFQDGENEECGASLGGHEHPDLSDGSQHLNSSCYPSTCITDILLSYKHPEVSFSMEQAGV
T4 sequence (P57059 whole entry): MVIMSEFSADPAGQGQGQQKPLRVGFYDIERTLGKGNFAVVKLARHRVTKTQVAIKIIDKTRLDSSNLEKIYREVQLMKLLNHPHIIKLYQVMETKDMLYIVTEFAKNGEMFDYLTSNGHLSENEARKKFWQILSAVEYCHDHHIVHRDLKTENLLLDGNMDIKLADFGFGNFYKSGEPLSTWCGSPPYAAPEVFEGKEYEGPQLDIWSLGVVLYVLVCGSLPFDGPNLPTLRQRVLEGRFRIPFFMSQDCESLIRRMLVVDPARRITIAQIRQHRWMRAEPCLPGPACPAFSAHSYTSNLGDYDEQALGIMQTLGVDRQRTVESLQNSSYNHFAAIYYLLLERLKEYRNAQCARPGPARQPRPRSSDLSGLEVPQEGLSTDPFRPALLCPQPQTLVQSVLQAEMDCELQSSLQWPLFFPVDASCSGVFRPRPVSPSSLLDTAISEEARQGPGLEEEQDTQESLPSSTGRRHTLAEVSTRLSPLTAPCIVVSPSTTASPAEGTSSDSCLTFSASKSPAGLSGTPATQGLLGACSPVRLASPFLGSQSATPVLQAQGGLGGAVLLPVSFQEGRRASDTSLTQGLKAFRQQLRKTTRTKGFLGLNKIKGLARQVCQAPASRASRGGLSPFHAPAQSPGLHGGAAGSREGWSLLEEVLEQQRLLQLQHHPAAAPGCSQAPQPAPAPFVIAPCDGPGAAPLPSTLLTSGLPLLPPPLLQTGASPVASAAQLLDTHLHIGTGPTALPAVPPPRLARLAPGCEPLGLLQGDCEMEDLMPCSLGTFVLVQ
T3 sequence (Q9H0K1 whole entry): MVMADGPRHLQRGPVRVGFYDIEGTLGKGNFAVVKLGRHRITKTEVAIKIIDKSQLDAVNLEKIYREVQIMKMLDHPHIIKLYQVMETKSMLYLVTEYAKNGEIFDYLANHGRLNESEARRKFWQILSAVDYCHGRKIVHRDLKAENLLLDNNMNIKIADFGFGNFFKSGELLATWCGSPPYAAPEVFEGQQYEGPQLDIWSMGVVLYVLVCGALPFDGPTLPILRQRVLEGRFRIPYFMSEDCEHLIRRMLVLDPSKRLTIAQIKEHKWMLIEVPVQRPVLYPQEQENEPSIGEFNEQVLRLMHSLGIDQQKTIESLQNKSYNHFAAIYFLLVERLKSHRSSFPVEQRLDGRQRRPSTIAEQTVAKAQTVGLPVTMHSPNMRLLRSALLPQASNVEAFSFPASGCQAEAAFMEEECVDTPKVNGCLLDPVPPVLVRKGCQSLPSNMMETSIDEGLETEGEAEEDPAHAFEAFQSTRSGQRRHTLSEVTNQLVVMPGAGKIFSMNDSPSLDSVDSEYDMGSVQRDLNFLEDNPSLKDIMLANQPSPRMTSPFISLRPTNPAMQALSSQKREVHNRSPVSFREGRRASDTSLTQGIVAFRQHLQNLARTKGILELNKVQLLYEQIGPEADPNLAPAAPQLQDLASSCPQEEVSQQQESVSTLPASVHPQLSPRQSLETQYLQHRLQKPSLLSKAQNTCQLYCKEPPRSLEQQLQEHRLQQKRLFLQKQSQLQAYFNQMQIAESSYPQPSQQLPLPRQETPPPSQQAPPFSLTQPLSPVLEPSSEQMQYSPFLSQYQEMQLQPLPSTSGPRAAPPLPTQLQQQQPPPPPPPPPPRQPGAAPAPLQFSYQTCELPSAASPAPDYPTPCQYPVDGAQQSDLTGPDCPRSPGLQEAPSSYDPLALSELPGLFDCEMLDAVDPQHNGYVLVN

Consider `Cc1nc(Nc2ncc(C(=O)Nc3c(Cl)cccc3Br)s2)cc(N2CCN(CCO)CC2)n1` [Compound B1, N-(2-bromo-6-chlorophenyl)-2-((6-(4-(2-hydroxyethyl)piperazin-1-yl)-2-methylpyrimidin-4-yl)amino)thiazole-5-carboxamide], for which, in the series on M579-A2-luc tumour cells, the “cytotoxicity in the presence of TNF compared to inhibitor alone” value (“cytotoxicity … compared to inhibitor alone” for short) is listed as “increased cytotoxicity”. In addition, the “inhibitory activity” value at ABL1 wt is “pan-SIK and ABL1 & SRC inhibitor”; on SRC (GST-HIS-tag), “pan-SIK and ABL1 & SRC inhibitor”.
As to `COc1c(F)cccc1NC(=O)c1cnc(Nc2cc(N3CCN(CCO)CC3)nc(C)n2)s1` [Compound B4, N-(3-fluoro-2-methoxyphenyl)-2-((6-(4-(2-hydroxyethyl)piperazin-1-yl)-2-methylpyrimidin-4-yl)amino)thiazole-5-carboxamide], in the series on M579-A2-luc tumour cells, the “cytotoxicity … compared to inhibitor alone” value is listed as “fails to exhibit cytotoxicity”. The “inhibitory activity” value is given as “potent inhibitor” against ABL1 wt; “weak inhibitor” on SIK3; “potent inhibitor” on SRC (GST-HIS-tag); “strong inhibitor” against SIK2; “strong inhibitor” against SIK1.
In the case of `CCOc1cccc(Cl)c1NC(=O)c1cnc(Nc2cc(N3CCN(CCO)CC3)nc(C)n2)s1` [Compound B8, N-(2-chloro-6-ethoxyphenyl)-2-((6-(4-(2-hydroxyethyl)piperazin-1-yl)-2-methylpyrimidin-4-yl)amino)thiazole-5-carboxamide], the “cytotoxicity … compared to inhibitor alone” value with M579-A2-luc tumour cells is recorded as “fails to exhibit cytotoxicity”. In addition, the “inhibitory activity” value is recorded as “potent ABL1 & SRC inhibitor” against ABL1 wt; “low inhibitory activity” on SIK3; “potent ABL1 & SRC inhibitor” against SRC (GST-HIS-tag); “low inhibitory activity” on SIK2; “low inhibitory activity” on SIK1.
For `Cc1ccc(NC(=O)c2ccc(CN3CCN(C)CC3)cc2)cc1Nc1nccc(-c2cccnc2)n1` [imatinib], the “survival / intracranial tumour growth” value in the series on K562 CML cells is listed as “failed to inhibit intracranial tumour growth”. In the series on K562 human CML tumours, the tumour response entry is listed as “failed to produce a comparative response”.
On to `Cc1cn(-c2cc(NC(=O)c3ccc(C)c(Nc4nccc(-c5cccnc5)n4)c3)cc(C(F)(F)F)c2)cn1` [nilotinib], for which the “terminal / elimination half-life” value in series [1] is reported as “approximately 17 hours”.
